Test results published in patent publication US8350027B2, “Dual-acting pyrazole antihypertensive agents” (Theravance, Inc., priority 2009, dated 2013).

Legend:
human AT1 receptor = target: T1, human AT1 receptor (Homo sapiens, UniProt P30556); assay: AT1 radioligand binding assay (displacement of [Eu]AngII); details: membranes of CHO-K1 cells expressing cloned human AT1 receptor; values given as lower bounds; read-out: AT1 pKi (converted)
T1 construct: expressed in transfected cells; host or cells: CHO-K1
T1 sequence (P30556 1-359): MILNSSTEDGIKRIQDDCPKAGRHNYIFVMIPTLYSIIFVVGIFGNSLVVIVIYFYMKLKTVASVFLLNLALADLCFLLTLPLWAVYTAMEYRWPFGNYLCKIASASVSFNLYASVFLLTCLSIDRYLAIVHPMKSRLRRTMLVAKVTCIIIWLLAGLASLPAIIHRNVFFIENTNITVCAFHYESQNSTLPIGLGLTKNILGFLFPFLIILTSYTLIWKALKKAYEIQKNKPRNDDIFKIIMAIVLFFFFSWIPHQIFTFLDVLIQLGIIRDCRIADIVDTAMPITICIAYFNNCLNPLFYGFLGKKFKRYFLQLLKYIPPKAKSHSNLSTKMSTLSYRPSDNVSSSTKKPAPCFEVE
Summary of the method: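 Membranes from CHO-K1 cells stably expressing cloned human AT1, 0.2 μg protein, in 50 mM Tris/HCl pH 7.5, 5 mM MgCl2, 0.025% BSA. Compounds displaced [Eu]AngII over 120 min in the dark at room temperature or 37° C; filter-bound TRF read. Nonspecific binding with 10 μM angiotensin II; IC50 converted to Ki via Cheng-Prusoff, reported as pKi.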

NEP enzyme = target: T2, NEP enzyme (Homo sapiens, UniProt P08473); assay: NEP enzyme inhibition assay (fluorogenic peptide substrate); type: biochemical; details: values given as lower bounds; * = prodrugs, may not exhibit NEP activity in an in vitro assay; read-out: NEP pIC50 (converted)
T2 construct: purchased R&D Systems, Minneapolis, Minn; 1182-ZN
T2 sequence (P08473 52-750 limits assumed): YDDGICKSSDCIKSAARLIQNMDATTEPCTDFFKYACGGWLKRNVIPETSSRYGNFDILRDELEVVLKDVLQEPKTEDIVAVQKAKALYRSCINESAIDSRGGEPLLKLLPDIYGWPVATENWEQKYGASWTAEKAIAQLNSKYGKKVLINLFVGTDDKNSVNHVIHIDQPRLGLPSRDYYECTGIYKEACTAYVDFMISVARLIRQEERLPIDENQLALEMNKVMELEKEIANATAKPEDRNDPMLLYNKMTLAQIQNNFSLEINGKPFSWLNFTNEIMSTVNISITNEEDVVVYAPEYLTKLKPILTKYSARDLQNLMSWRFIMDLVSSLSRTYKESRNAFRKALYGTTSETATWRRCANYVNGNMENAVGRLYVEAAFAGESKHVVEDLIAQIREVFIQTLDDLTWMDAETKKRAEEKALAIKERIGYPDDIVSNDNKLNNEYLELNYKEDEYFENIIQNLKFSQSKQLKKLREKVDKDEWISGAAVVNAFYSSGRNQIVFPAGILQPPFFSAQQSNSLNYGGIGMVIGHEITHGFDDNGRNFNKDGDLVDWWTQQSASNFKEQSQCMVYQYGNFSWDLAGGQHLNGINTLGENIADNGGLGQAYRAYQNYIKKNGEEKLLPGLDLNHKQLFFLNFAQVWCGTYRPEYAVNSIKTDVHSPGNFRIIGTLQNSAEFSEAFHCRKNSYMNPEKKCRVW
Summary of the method: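 Recombinant human NEP was run with Mca-BK2 (10 μM) at room temperature in Tris buffer with 1 μM Zn. Compounds (10 μM–20 pM, 12 points) were pre-equilibrated 10 min, then reacted 20 min and acid-stopped. Fluorescence ex 320/em 405 nm, one-site competition fit gives pIC50. Thiol compounds may be pre-treated with 400 μM TCEP.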

Row | Compound | Ki (human AT1 receptor) | IC50 (NEP enzyme)
1 | CCCCc1cc(C(=O)N[C@@H](CS)CC(C)C)nn1Cc1ccc(-c2ccccc2C(=O)O)cc1F [Example 9-3, 4′-[5-Butyl-3-((R)-1-mercaptomethyl-3-methylbutylcarbamoyl)-pyrazol-1-ylmethyl]-3′-fluorobiphenyl-2-carboxylic acid] | ≤ 0.1 µM | ≤ 0.1 µM
2 | CCCCc1cc(C(=O)N[C@@H](CS)Cc2ccccc2)nn1Cc1ccc(-c2ccccc2C(=O)O)cc1F [Example 9-4, 4′-[3-((R)-1-Benzyl-2-mercaptoethylcarbamoyl)-5-butylpyrazol-1-ylmethyl]-3′-fluorobiphenyl-2-carboxylic acid] | ≤ 0.1 µM | ≤ 0.1 µM
3 | CCCc1cc(C(=O)N[C@H](Cc2ccccc2)[C@@H](O)C(=O)O)nn1Cc1ccc(-c2ccccc2C(=O)O)cc1 [Example 9-5, 4′-[3-((1R,2R)-1-Benzyl-2-carboxy-2-hydroxyethylcarbamoyl)-5-propylpyrazol-1-ylmethyl]biphenyl-2-carboxylic acid] | ≤ 0.1 µM | ≤ 0.1 µM
4 | CCCc1cc(C(=O)N[C@@H](CS)Cc2ccccc2)nn1Cc1ccc(-c2ccccc2C(=O)O)cc1 [Example 9-6, 4′-[3-((R)-1-Mercaptomethyl-2-phenylethylcarbamoyl)-5-propylpyrazol-1-ylmethyl]biphenyl-2-carboxylic acid] | ≤ 0.1 µM | ≤ 0.1 µM
5 | CCCc1cc(C(=O)N[C@H](Cc2ccccc2)[C@@H](O)C(=O)O)nn1Cc1ccc(-c2ccccc2C(=O)O)c(F)c1F [Example 9-7, 4′-[3-((1R,2R)-1-Benzyl-2-carboxy-2-hydroxyethylcarbamoyl)-5-propylpyrazol-1-ylmethyl]-2′,3′-difluorobiphenyl-2-carboxylic acid] | ≤ 0.1 µM | ≤ 0.1 µM
6 | CCCc1cc(C(=O)N[C@@H](CC(=O)O)Cc2ccccc2Cl)nn1Cc1ccc(-c2ccccc2-c2nnn[nH]2)nc1 [Example 10, (R)-4-(2-Chlorophenyl)-3-[(5-propyl-1-{6-[2-(1H-tetrazol-5-yl)phenyl]pyridin-3-ylmethyl}-1H-pyrazole-3-carbonyl)amino]butyric Acid] | ≤ 0.01 µM | ≤ 0.1 µM
7 | CCCc1cc(C(=O)N[C@@H](CC(=O)O)Cc2ccccc2C(F)(F)F)nn1Cc1ccc(-c2ccccc2-c2nnn[nH]2)nc1 [Example 11, (R)-3-[(5-Propyl-1-{6-[2-(1H-tetrazol-5-yl)-phenyl]-pyridin-3-ylmethyl}-1H-pyrazole-3-carbonyl)-amino]-4-(2-trifluoromethylphenyl)butyric Acid] | ≤ 0.01 µM | ≤ 0.1 µM
8 | CCCc1cc(C(=O)N[C@@H](CC(=O)O)Cc2ccccc2F)nn1Cc1ccc(-c2ccccc2-c2nnn[nH]2)nc1 [Example 12, (R)-4-(2-Fluorophenyl)-3-[(5-propyl-1-{6-[2-(1H-tetrazol-5-yl)phenyl]pyridin-3-ylmethyl}-1H-pyrazole-3-carbonyl)amino]butyric acid] | ≤ 0.01 µM | ≤ 0.1 µM
9 | CCCc1cc(C(=O)N[C@H](Cc2ccccc2)[C@@H](O)C(=O)O)nn1Cc1ccc(-c2ccccc2S(=O)(=O)NC(C)=O)nc1 [Example 13, (2R,3R)-3-({1-[6-(2-Acetylsulfamoylphenyl)pyridin-3-ylmethyl]-5-propyl-1H-pyrazole-3-carbonyl}amino)-2-hydroxy-4-phenylbutyric Acid] | ≤ 0.1 µM | ≤ 0.1 µM
10 | CCCc1cc(C(=O)N[C@H](Cc2ccccc2)[C@@H](O)C(=O)O)nn1Cc1ccc(-c2ccccc2-c2nnn[nH]2)nc1 [Example 14-1, (2R,3R)-2-Hydroxy-4-phenyl-3-[(5-propyl-1-{6-[2-(1H-tetrazol-5-yl)-phenyl]pyridin-3-ylmethyl}-1H-pyrazole-3-carbonyl)amino]butyric acid] | ≤ 0.01 µM | ≤ 0.1 µM
11 | CCCc1cc(C(=O)N[C@@H](CS)Cc2ccccc2)nn1Cc1ccc(-c2ccccc2-c2nnn[nH]2)nc1 [Example 14-2, 5-Propyl-1-{6-[2-(1H-tetrazol-5-yl)phenyl]pyridin-3-ylmethyl}-1H-pyrazole-3-carboxylic acid ((R)-1-benzyl-2-mercaptoethyl)amide] | ≤ 0.01 µM | ≤ 0.1 µM
12 | CCCc1cc(C(=O)N[C@@H](CS)Cc2ccccc2)nn1Cc1ccc(-c2ccccc2S(=O)(=O)NC(C)=O)nc1 [Example 14-3, 1-[6-(2-Acetylsulfamoyl-phenyl)pyridin-3-ylmethyl]-5-propyl-1H-pyrazole-3-carboxylic acid ((R)-1-benzyl-2-mercaptoethyl)amide] | ≤ 0.1 µM | ≤ 0.1 µM
13 | CCCc1cc(C(=O)N[C@@H](CC(=O)O)Cc2ccccc2Br)nn1Cc1ccc(-c2ccccc2-c2nnn[nH]2)nc1 [Example 14-4, (R)-4-(2-Bromophenyl)-3-[(5-propyl-1-{6-[2-(1H-tetrazol-5-yl)-phenyl]-pyridin-3-ylmethyl}-1H-pyrazole-3-carbonyl)amino]butyric acid] | ≤ 0.01 µM | ≤ 0.1 µM
14 | CCCc1cc(C(=O)N[C@H](Cc2ccccc2Cl)[C@@H](O)C(=O)O)nn1Cc1ccc(-c2ccccc2-c2nnn[nH]2)nc1 [Example 14-5, (2R,3R)-4-(2-Chlorophenyl)-2-hydroxy-3-[(5-propyl-1-{6-[2-(1H-tetrazol-5-yl)phenyl]pyridin-3-ylmethyl}-1H-pyrazole-3-carbonyl)amino]butyric acid] | ≤ 0.01 µM | ≤ 0.1 µM
15 | CCCc1cc(C(=O)N[C@@H](CC(=O)O)Cc2ccccc2)nn1Cc1ccc(-c2ccccc2-c2nnn[nH]2)nc1 [Example 14-6, (R)-4-Phenyl-3-[(5-propyl-1-{6-[2-(1H-tetrazol-5-yl)-phenyl]-pyridin-3-ylmethyl}-1H-pyrazole-3-carbonyl)amino]butyric acid] | ≤ 0.01 µM | ≤ 0.1 µM
16 | CCCc1cc(C(=O)N[C@@H](CC(=O)O)CC(C)C)nn1Cc1ccc(-c2ccccc2-c2nnn[nH]2)nc1 [Example 14-7, (R)-5-Methyl-3-[(5-propyl-1-{6-[2-(1H-tetrazol-5-yl)-phenyl]-pyridin-3-ylmethyl}-1H-pyrazole-3-carbonyl)-amino]hexanoic acid] | ≤ 0.01 µM | ≤ 0.1 µM
17 | CCCc1cc(C(=O)N[C@H](CC(C)C)[C@@H](O)C(=O)O)nn1Cc1ccc(-c2ccccc2-c2nnn[nH]2)nc1 [Example 14-8, (2R,3R)-2-Hydroxy-5-methyl-3-[(5-propyl-1-{6-[2-(1H-tetrazol-5-yl)phenyl]pyridin-3-ylmethyl}-1H-pyrazole-3-carbonyl)amino]hexanoic acid] | ≤ 0.01 µM | ≤ 1 µM
18 | CCCc1cc(C(=O)N[C@H](Cc2ccccc2)[C@H](O)C(=O)O)nn1Cc1ccc(-c2ccccc2-c2nnn[nH]2)nc1 [Example 14-9, (2S,3R)-2-Hydroxy-4-phenyl-3-[(5-propyl-1-{6-[2-(1H-tetrazol-5-yl)phenyl]pyridin-3-ylmethyl}-1H-pyrazole-3-carbonyl)amino]butyric acid] | ≤ 0.01 µM | ≤ 0.1 µM
19 | CCCc1cc(C(=O)N[C@@H](CC(=O)O)Cc2ccsc2)nn1Cc1ccc(-c2ccccc2-c2nnn[nH]2)nc1 [Example 14-10, (R)-3-[(5-Propyl-1-{6-[2-(1H-tetrazol-5-yl)-phenyl]-pyridin-3-ylmethyl}-1H-pyrazole-3-carbonyl)-amino]-4-thiophen-3-yl-butyric acid] | ≤ 0.01 µM | ≤ 0.1 µM
20 | CCCc1cc(C(=O)N[C@@H](CC(=O)O)Cc2ccco2)nn1Cc1ccc(-c2ccccc2-c2nnn[nH]2)nc1 [Example 14-11, (R)-4-Furan-2-yl-3-[(5-propyl-1-{6-[2-(1H-tetrazol-5-yl)phenyl]pyridin-3-ylmethyl}-1H-pyrazole-3-carbonyl)amino]butyric acid] | ≤ 0.01 µM | ≤ 1 µM
21 | CCCc1cc(C(=O)N[C@@H](CC(=O)O)Cc2cccc(F)c2)nn1Cc1ccc(-c2ccccc2-c2nnn[nH]2)nc1 [Example 14-12, (R)-4-(3-Fluorophenyl)-3-[(5-propyl-1-{6-[2-(1H-tetrazol-5-yl)phenyl]pyridin-3-ylmethyl}-1H-pyrazole-3-carbonyl)amino]butyric acid] | ≤ 0.01 µM | ≤ 0.1 µM
22 | CCCc1cc(C(=O)N[C@@H](CC(=O)O)Cc2ccc(F)cc2)nn1Cc1ccc(-c2ccccc2-c2nnn[nH]2)nc1 [Example 14-13, (R)-4-(4-Fluorophenyl)-3-[(5-propyl-1-{6-[2-(1H-tetrazol-5-yl)phenyl]pyridin-3-ylmethyl}-1H-pyrazole-3-carbonyl)amino]butyric acid] | ≤ 0.01 µM | ≤ 0.1 µM
23 | CCCc1cc(C(=O)N[C@@H](CC(=O)O)Cc2ccccc2Cl)nn1Cc1ccc(-c2ccccc2S(=O)(=O)NC(C)=O)nc1 [Example 14-14, (R)-3-({1-[6-(2-Acetylsulfamoylphenyl)-pyridin-3-ylmethyl]-5-propyl-1H-pyrazole-3-carbonyl}-amino)-4-(2-chlorophenyl)butyric acid] | ≤ 0.01 µM | ≤ 1 µM
